The source of these data is ChEMBL document CHEMBL1127865, “C-linked pyrazole biaryl tetrazoles as antagonists of angiotensin II Part II: pharmacokinetics and an efficient regioselective synthesis” (Bioorg Med Chem Lett, 1994).

SMILES strings stand for the structures.

Holding throughout (type): ADME, organism-based
Data set [1] can be described thus: Compound was evaluated for volume of distribution in rat. The following applies: in vivo.
Data set [2] can be described thus: Compound was evaluated for plasma clearance in rat. The following applies: read-out: Clp.
Data set [3] is described as follows: Oral bioavailability in rat. The settings on record: in vivo.
The nature of data set [4]: Compound was evaluated for plasma half life in rat.

`CCCCc1nn(CC2CC2)c(C(=O)O)c1Cc1ccc(-c2ccccc2-c2nn[nH]n2)cc1` registered a Vd in data set [1] of 0.2 L/kg. In addition, in data set [2], the clearance is 0.2 mL/min/kg. This compound returned a bioavailability in data set [3] of 58%. Besides, the half-life in data set [4] is 12.3 h.
On the same counts, the results for `CCCCc1nn(CCCC)c(C(=O)O)c1Cc1ccc(-c2ccccc2-c2nn[nH]n2)cc1` are 0.16 L/kg, 0.12 mL/min/kg, 26% and 14.8 h.

The Vd is the apparent volume that relates the amount in the body to the concentration in plasma or blood. Usually bioavailability stands for the share of a dose that reaches the circulation, judged against a reference dose that is usually intravenous. A word on the half-life: it is the time needed for the level to fall by half in the phase considered. A higher half-life goes with slow loss.
